Measurements taken from patent publication EP2033635B1, “Use of phenylbutyric acid or salts thereof for treating pruritus” (Asan Laboratories Company (Cayman) Limited, priority 2007, dated 2009).

Key:
Type in all cases: cell-based
[1] = tested on: Jurkat T cells; experiment: Real-time PCR gene expression profiling (RT2 Profiler PCR Array Human Th1-Th2-Th3) in Jurkat T cells stimulated with PMA/ionomycin
Protocol: FIGs. […] Jurkat T cells were pre-incubated with phenylbutyrate (1 mM) for 24 hrs, and then stimulated with ionomycin (1 µM) and PMA (10 ng/ml) for 6 hrs. Using real-time PCR, the expression of a panel of genes related to helper T cells with or without T-cell stimulation and phenylbutyrate treatment was analyzed. The array includes cytokine genes representative of Th1, Th2 and Th3 cells, gene encoding transcriptional factors regulating the expression of cytokines as well as other markers of CD4+ T lymphocytes, genes involved in immune cell activation in the Th1 and Th2 type immune responses, and genes involved in the antimicrobial humoral response. Results are the mean ± SE of three determinations, expressed as the fold induction (observed experimental relative unit/basal control relative unit in the absence of any stimuli or treatment);
Jurkat T-cells were nonstimulated or stimulated with ionomycin (1 µM) and PMA (10 ng/ml) for 6 hrs in the absence or presence of pre-incubation of 4-phenylbutyrate sodium (1 mM) for 24 hrs, RNA was extracted and then RT-PCR was performed for profiling the expression of 84 genes related to Th1-Th2-Th3 responses shown in the gene table (FIG. 2).

[2] = tested on: Jurkat T cells; experiment: Flow cytometry of cell proliferation, cytotoxicity, apoptosis and cell cycle in Jurkat T cells
Protocol: Jurkat T cells were treated in the presence of increasing concentrations of 4-phenylbutyrate, ionomycin, and/or phorbol 12-myristate 13-acetate (PMA) for 24-72 hr at 37°C.

[3] = tested on: human IL-2 promoter; experiment: Chromatin immunoprecipitation (ChIP) assay of transcription-factor binding and acetyl H3 at the IL-2 promoter in Jurkat T cells; details: 4-phenylbutyrate sodium 1 mM 24 hrs, then ionomycin 1 µM and PMA 10 ng/ml 6 hrs
Protocol: The induction of multiple cytokine expression depends on the coordinated activation of transcription factors, mostly including NFκB, NF-AT, and AP-1 (Sancho R, et al. J Immunol 172:2341-51, 2004; Li-Weber M, et al. Eur J Immunol 34 :1111-18, 2004). Because induction of cytokines is regulated mainly at the transcriptional level, chromatin immunoprecipitation (ChIP) analysis in Jurkat T cells was performed to determine the binding of NFκB, NF-AT, and AP-1 to IL-2 promoter. Jurkat T cells were nonstimulated or stimulated with ionomycin (1 µM) and PMA (10 ng/ml) for 6 hrs in the absence or presence of pre-incubation of 4-phenylbutyrate sodium (1 mM) for 24 hrs, then formaldehyde crosslinking between protein and DNA and ChIP using anti- NFκB, NF-AT, AP-1, Sp1 or acetyl H3 antibodies (Santa Cruz) were performed. PCR primers were designed to amplify the human IL-2 promoter: F 5'-[…] (-317 to -292 in the IL-2 promoter), R 5'-[…] (+33 to 58). PCR amplifications used a three-step protocol with 90°C (30 s) denaturing temperature, 59°C (45 s) primer annealing temperature, and 72°C (30 s) enzyme reaction temperature for 35 cycles.

[4] = PMA/ionomycin-induced Jurkat T-cell activation, result in words
[5] = phenylbutyrate 1 mM 24 hrs, then ionomycin 1 µM + PMA 10 ng/ml 6 hrs, mitogen stimulation alone 2.68
[6] = 1 mM for 48 hrs, control versus treated cells, flow cytometry

O=C([O-])CCCc1ccccc1.[Na+] [Phenylbutyrate, 4-phenylbutyrate sodium]
expression of SOCS1, a suppressor of cytokine signaling [1, 4]: upregulates more expression
induction of Th1 and Th2 cytokines and related genes, T-cell activation markers, immune response genes [1, 4]: completely suppresses or significantly decreases
fold induction of CCL7 [1, 5]: 1.04 fold
fold induction of CCL11 [1, 5]: 0.98 fold
fold induction of CCR5 [1, 5]: 0.98 fold
fold induction of IL6 [1, 5]: 0.98 fold
fold induction of IL6R [1, 5]: 0.98 fold
fold induction of IL9 [1, 5]: 0.98 fold
fold induction of IL12B [1, 5]: 0.98 fold
fold induction of IL12RB2 [1, 5]: 0.98 fold
fold induction of IL13 [1, 5]: 0.98 fold
fold induction of IL13RA1 [1, 5]: 0.98 fold
fold induction of IL18 [1, 5]: 0.98 fold
fold induction of MAF [1, 5]: 0.98 fold
fold induction of SFTPD [1, 5]: 0.98 fold
fold induction of TLR4 [1, 5]: 0.98 fold
fold induction of LAT ([1]; phenylbutyrate 1 mM 24 hrs, then ionomycin 1 µM + PMA 10 ng/ml 6 hrs, mitogen stimulation alone 3.12): 1.57 fold
fold induction of CCR2 ([1]; phenylbutyrate 1 mM 24 hrs, then ionomycin 1 µM + PMA 10 ng/ml 6 hrs, mitogen stimulation alone 4.20): 0.84 fold
fold induction of JAK2 ([1]; phenylbutyrate 1 mM 24 hrs, then ionomycin 1 µM + PMA 10 ng/ml 6 hrs, mitogen stimulation alone 4.72): 2.27 fold
fold induction of SOCS1 ([1]; phenylbutyrate 1 mM 24 hrs, then ionomycin 1 µM + PMA 10 ng/ml 6 hrs, mitogen stimulation alone 4.82): 8.59 fold
fold induction of IRF1 ([1]; phenylbutyrate 1 mM 24 hrs, then ionomycin 1 µM + PMA 10 ng/ml 6 hrs, mitogen stimulation alone 5.86): 1.7 fold
fold induction of CCR4 ([1]; phenylbutyrate 1 mM 24 hrs, then ionomycin 1 µM + PMA 10 ng/ml 6 hrs, mitogen stimulation alone 7.41): 1.93 fold
fold induction of STAT4 ([1]; phenylbutyrate 1 mM 24 hrs, then ionomycin 1 µM + PMA 10 ng/ml 6 hrs, mitogen stimulation alone 7.89): 3.32 fold
fold induction of IL1R1 ([1]; phenylbutyrate 1 mM 24 hrs, then ionomycin 1 µM + PMA 10 ng/ml 6 hrs, mitogen stimulation alone 11.31): 3.92 fold
fold induction of IL18R1 ([1]; phenylbutyrate 1 mM 24 hrs, then ionomycin 1 µM + PMA 10 ng/ml 6 hrs, mitogen stimulation alone 19.97): 0.98 fold
fold induction of IRF4 ([1]; phenylbutyrate 1 mM 24 hrs, then ionomycin 1 µM + PMA 10 ng/ml 6 hrs, mitogen stimulation alone 26.17): 16.50 fold
fold induction of TLR6 ([1]; phenylbutyrate 1 mM 24 hrs, then ionomycin 1 µM + PMA 10 ng/ml 6 hrs, mitogen stimulation alone 29.04): 10.43 fold
fold induction of IL4R ([1]; phenylbutyrate 1 mM 24 hrs, then ionomycin 1 µM + PMA 10 ng/ml 6 hrs, mitogen stimulation alone 42.81): 9.53 fold
fold induction of BCL3 ([1]; phenylbutyrate 1 mM 24 hrs, then ionomycin 1 µM + PMA 10 ng/ml 6 hrs, mitogen stimulation alone 58.08): 19.73 fold
fold induction of CD69 ([1]; phenylbutyrate 1 mM 24 hrs, then ionomycin 1 µM + PMA 10 ng/ml 6 hrs, mitogen stimulation alone 87.43): 48.57 fold
fold induction of TNFRSF9 ([1]; phenylbutyrate 1 mM 24 hrs, then ionomycin 1 µM + PMA 10 ng/ml 6 hrs, mitogen stimulation alone 89.26): 13.01 fold
fold induction of IFN-gamma ([1]; phenylbutyrate 1 mM 24 hrs, then ionomycin 1 µM + PMA 10 ng/ml 6 hrs, mitogen stimulation alone 126.24): 99.18 fold
fold induction of IL2RA ([1]; phenylbutyrate 1 mM 24 hrs, then ionomycin 1 µM + PMA 10 ng/ml 6 hrs, mitogen stimulation alone 151.17): 64.98 fold
fold induction of CSF2 ([1]; phenylbutyrate 1 mM 24 hrs, then ionomycin 1 µM + PMA 10 ng/ml 6 hrs, mitogen stimulation alone 229.13): 88.77 fold
fold induction of IL2 ([1]; phenylbutyrate 1 mM 24 hrs, then ionomycin 1 µM + PMA 10 ng/ml 6 hrs, mitogen stimulation alone 831.75): 304.86 fold
apoptosis [2, 6]: no significant differences
cell proliferation [2, 6]: no significant differences
cytotoxicity [2, 6]: no significant differences
entry of the cells into the S phase of the cell cycle ([2]; pre-treatment 1 mM for 24 hrs, 48 hrs after stimulation with ionomycin 1 µM plus PMA 10 ng/ml): almost completely prevented
DNA binding of AP-1 to IL-2 promoter [3]: decreases
DNA binding of NF-AT to IL-2 promoter [3]: decreases
DNA binding of NFκB to IL-2 promoter [3]: decreases
chromatin structure, acetyl H3 status [3]: altering acetyl H3 status
